Assay results: patent US20240287042A1, “NOVEL COMPOUND HAVING INHIBITORY ACTIVITY AGAINST PENDRIN, AND PHARMACEUTICAL USES THEREOF” (UIF (University Industry Foundation), Yonsei University, priority 2021, published 2024)

Molecular target: T1, human wild-type (WT)-pendrin (Homo sapiens, UniProt O43511)
T1 construct: expressed in transfected cells
T1 sequence (O43511 1-780): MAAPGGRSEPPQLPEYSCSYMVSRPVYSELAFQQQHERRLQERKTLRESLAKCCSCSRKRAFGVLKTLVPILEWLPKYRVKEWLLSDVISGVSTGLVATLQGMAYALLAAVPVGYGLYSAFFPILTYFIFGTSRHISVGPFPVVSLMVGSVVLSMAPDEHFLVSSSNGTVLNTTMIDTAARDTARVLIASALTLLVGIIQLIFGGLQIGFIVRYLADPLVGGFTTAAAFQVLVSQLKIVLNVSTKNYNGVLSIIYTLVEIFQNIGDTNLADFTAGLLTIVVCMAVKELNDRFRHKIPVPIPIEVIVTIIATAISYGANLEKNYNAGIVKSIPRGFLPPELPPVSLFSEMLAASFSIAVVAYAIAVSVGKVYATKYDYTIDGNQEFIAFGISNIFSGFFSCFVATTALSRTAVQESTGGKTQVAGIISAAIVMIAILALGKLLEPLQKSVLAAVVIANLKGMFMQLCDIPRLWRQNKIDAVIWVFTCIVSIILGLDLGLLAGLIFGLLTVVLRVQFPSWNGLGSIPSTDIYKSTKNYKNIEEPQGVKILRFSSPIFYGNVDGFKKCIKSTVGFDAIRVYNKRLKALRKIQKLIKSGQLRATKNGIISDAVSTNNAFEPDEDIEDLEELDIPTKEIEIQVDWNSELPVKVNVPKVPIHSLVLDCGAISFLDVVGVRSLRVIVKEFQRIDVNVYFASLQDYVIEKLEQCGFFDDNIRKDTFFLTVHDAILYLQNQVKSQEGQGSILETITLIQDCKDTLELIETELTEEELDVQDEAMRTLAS
Experiment: Pendrin Cl−/I− exchange inhibitory activity, YFP fluorescence in CHO-K1 cells
Assay type: cell-based
Conditions: CHO-K1; for inhibition at 1 µM: compound concentration 1 μM; for inhibition at 3 µM: compound concentration 3 μM; for inhibition at 10 µM: compound concentration 10 μM; for inhibition at 30 µM: compound concentration 30 μM; for inhibition at 100 µM: compound concentration 100 μM
Method: Chinese hamster ovary (CHO)-K1 cells were cultured in DMEM medium containing 10% fetal bovine serum (FBS), 100 units/ml of penicillin and 100 μg/ml streptomycin. CHO-K1 cells were stably transfected with pcDNA3.1 encoding the halide sensor YFP-H148Q/I152L/F46L and human wild-type (WT)-pendrin.
(§1) CHO-K1 cells expressing human WT pendrin and YFP-F46L/H148Q/I152L were plated in 96-well microplates at a density of 2×10^4 cells per well, and cultured for 48 hours. Each well of the cell cultured 96-well plate was washed 2 times with 200 μL of PBS, and filled with 50 μL of HEPES buffered solution (140 mM NaCl, 5 mM KCl, 1 mM MgCl2, 1 mM CaCl2), 10 mM glucose and 10 mM HEPES (pH 7.4)). Test compounds (1 μL) were added to a final concentration of 1, 3, 10, 30 and 100 μM. After culturing at 37° C. for 10 minutes, the 96-well plate was located on the FLUOstar Omega Microplate Reader (BMG Labtech, Ortenberg, Germany) for a fluorescence assay. Fluorescence was recorded continuously (400 ms per point) for 1 second (baseline), whereby each well was assayed individually for pendrin-mediated I-influx. Then 50 μL of Na-substituted HEPES buffered solution (replacing NaCl with NaI) was added using a liquid injector at 1 second, and YFP fluorescence was recorded for 5 seconds. The initial iodide influx rate was determined from the initial slope of fluorescence by nonlinear regression, after the injection of iodide.
as §1, with “Chinese hamster ovary (CHO)-K1 cells were cultured in DMEM medium containing 10% fetal bovine serum (FBS), 100 units/ml of penicillin and 100 μg/ml streptomycin. CHO-K1 cells were stably transfected with pcDNA3.1 encoding the halide sensor YFP-H148Q/I152L/F46L and human wild-type (WT)-pendrin. 3-2: Assay of Cl^−/I^− exchange activity CHO-K1” for “CHO-K1”, “50” for “1, 3, 10, 30 and 100”, “Then,” for “Then”, “NaI-substituted” for “Na-substituted”

Row | Structure (SMILES) | inhibition at 1 µM [%] | inhibition at 3 µM [%] | inhibition at 10 µM [%] | inhibition at 30 µM [%] | inhibition at 100 µM [%]
1 | Cc1ccc(N2CCN(C(=O)Cc3c(C(=O)O)[nH]c4ccc(Cl)cc34)CC2)c(C)c1 [YPI-A4801, 5-Chloro-3-(2-(4-(2,4-dimethylphenyl)piperazin-1-yl)-2-oxoethyl)-1H-indole-2-carboxylic acid] | 40.9 | 72.8 | 95.4 | 96.7 | 97.4
2 | C[C@@H]1CN(c2ccccc2)CCN1C(=O)Cc1c(C(=O)O)[nH]c2ccc(Cl)cc12 [YPI-A4914, (R)-5-chloro-3-(2-(2-methyl-4-phenylpiperazin-1-yl)-2-oxoethyl)-1H-indole-2-carboxylic acid] | < 20 | < 20 | < 20 | < 20 | 68.2
3 | Cc1cccc(N2CCN(C(=O)Cc3c(C(=O)O)[nH]c4ccc(Cl)cc34)CC2)c1C [YPI-A4799, 5-Chloro-3-(2-(4-(2,3-dimethylphenyl)piperazin-1-yl)-2-oxoethyl)-1H-indole-2-carboxylic acid] | 27.9 | 65.3 | 94.2 | 95.5 | 97.1
4 | CC1(C)CN(c2ccc(Cl)cc2)CCN1C(=O)Cc1c(C(=O)O)[nH]c2ccc(Cl)cc12 [YPI-A4884, 5-Chloro-3-(2-(4-(4-chlorophenyl)-2,2-dimethylpiperazin-1-yl)-2-oxoethyl)-1H-indole-2-carboxylic acid] | < 20 | < 20 | < 20 | < 20 | 

The remaining lines, values ahead:

Row | inhibition at 1 µM [%] | inhibition at 3 µM [%] | inhibition at 10 µM [%] | inhibition at 30 µM [%] | inhibition at 100 µM [%] | Structure (SMILES)
5 | < 20 | < 20 | < 20 | 62.7 |  | CC(C)(C)c1ccc(N2CCN(C(=O)Cc3c(C(=O)O)[nH]c4ccc(F)cc34)CC2)cc1 [YPI-A4965, 3-(2-(4-(4-(Tert-butyl)phenyl)piperazin-1-yl)-2-oxoethyl)-5-fluoro-1H-indole-2-carboxylic acid]
6 | < 20 | 39.5 | 78.9 | 79.3 | 79.6 | Cc1cc(C)c2[nH]c(C(=O)O)c(CC(=O)N3CCN(c4c(C)cccc4Cl)CC3)c2c1 [YPI-A4949, 3-(2-(4-(2-Chloro-6-methylphenyl)piperazin-1-yl)-2-oxoethyl)-5,7-dimethyl-1H-indole-2-carboxylic acid]
7 | < 20 | 34.7 | 87.5 | 94.8 | 95.6 | Cc1c(Cl)cccc1N1CCN(C(=O)Cc2c(C(=O)O)[nH]c3ccc(Cl)cc23)CC1 [YPI-A4918, 5-Chloro-3-(2-(4-(3-chloro-2-methylphenyl)piperazin-1-yl)-2-oxoethyl)-1H-indole-2-carboxylic acid]
8 | < 20 | < 20 | < 20 | 72.5 | 73.8 | CCOc1ccc(N2CCN(C(=O)Cc3c(C(=O)O)[nH]c4ccc(Cl)cc34)CC2)cc1 [YPI-A4921, 5-Chloro-3-(2-(4-(4-ethoxyphenyl)piperazin-1-yl)-2-oxoethyl)-1H-indole-2-carboxylic acid]
